Test results from ChEMBL document CHEMBL2321687, “Identification of a novel arylpiperazine scaffold for fatty acid amide hydrolase inhibition with improved drug disposition properties” (Bioorg Med Chem Lett, 2013).

Key:
[1] = molecular target: Sodium-dependent dopamine transporter (Homo sapiens) (UniProt Q01959); assay: Displacement of [3H]BTCP from human recombinant DA transporter expressed in CHO cells at 1 uM; type: cell-based
[2] = molecular target: Sodium-dependent noradrenaline transporter (Homo sapiens) (UniProt P23975); assay: Displacement of [3H]nisoxetine from human recombinant NE transporter expressed in CHO cells at 1 uM; type: cell-based
Sodium-dependent noradrenaline transporter (Homo sapiens), sequence (P23975 whole entry): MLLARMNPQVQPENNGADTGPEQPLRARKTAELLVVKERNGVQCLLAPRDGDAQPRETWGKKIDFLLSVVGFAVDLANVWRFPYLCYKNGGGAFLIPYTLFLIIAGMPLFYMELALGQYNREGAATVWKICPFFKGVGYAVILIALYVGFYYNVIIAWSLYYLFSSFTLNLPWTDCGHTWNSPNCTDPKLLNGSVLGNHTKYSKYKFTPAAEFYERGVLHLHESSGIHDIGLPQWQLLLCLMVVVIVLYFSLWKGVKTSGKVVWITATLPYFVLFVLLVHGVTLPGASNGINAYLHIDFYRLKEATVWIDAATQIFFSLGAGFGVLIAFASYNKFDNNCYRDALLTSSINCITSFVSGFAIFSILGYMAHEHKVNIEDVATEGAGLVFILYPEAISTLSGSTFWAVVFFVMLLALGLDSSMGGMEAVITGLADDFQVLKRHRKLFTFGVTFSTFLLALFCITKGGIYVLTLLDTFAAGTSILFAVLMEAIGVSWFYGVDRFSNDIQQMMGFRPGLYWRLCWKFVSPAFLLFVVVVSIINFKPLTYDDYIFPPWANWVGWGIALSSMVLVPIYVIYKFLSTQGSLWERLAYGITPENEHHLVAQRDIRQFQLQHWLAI

Rattus norvegicus [3] = species: Rattus norvegicus; assay: Displacement of [35S]TBPS from rat GABA gated chloride channel in cerebral cortex; type: tissue-based; details: concentration not given here
Rattus norvegicus [4] = species: Rattus norvegicus; assay: Displacement of [125I]a-dendrotoxin from rat K+ V channel in cerebral cortex; type: tissue-based; details: concentration not given here
Rattus norvegicus [5] = species: Rattus norvegicus; assay: Displacement of [3H](-)D888 from rat L-type Ca2+ channel verapamil site in cerebral cortex; type: tissue-based; details: concentration not given here
[6] = molecular target: Somatostatin receptor (Mus musculus) (UniProt P30935+O08858+P30875+P30873+P49660); assay: Displacement of [125I]Tyr11-somatostatin-14 from mouse sst receptor in AtT20 cells; type: cell-based; details: concentration not given here
[7] = molecular target: Vasoactive intestinal polypeptide receptor 1 (Homo sapiens) (UniProt P32241); assay: Displacement of [125I]VIP from human recombinant VPAC1 receptor expressed in CHO cells at 1 uM; type: cell-based
[8] = molecular target: 5-hydroxytryptamine receptor 7 (Homo sapiens) (UniProt P34969); assay: Displacement of [3H]LSD from human recombinant 5-HT7 receptor expressed in CHO cells at 1 uM; type: cell-based
5-hydroxytryptamine receptor 7 (Homo sapiens), sequence (P34969 whole entry): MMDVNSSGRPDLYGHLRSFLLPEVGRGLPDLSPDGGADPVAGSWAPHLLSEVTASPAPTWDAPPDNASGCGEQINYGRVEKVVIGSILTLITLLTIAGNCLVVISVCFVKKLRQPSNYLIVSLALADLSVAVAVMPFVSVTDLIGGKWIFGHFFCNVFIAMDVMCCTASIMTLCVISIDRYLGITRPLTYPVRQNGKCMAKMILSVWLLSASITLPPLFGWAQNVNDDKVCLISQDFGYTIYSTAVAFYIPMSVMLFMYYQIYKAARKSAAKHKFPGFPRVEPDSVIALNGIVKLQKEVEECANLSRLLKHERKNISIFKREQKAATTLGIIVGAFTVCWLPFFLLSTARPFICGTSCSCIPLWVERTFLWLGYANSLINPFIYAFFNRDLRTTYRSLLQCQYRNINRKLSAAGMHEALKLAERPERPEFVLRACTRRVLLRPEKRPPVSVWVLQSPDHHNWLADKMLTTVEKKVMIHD

[9] = molecular target: 5-hydroxytryptamine receptor 3A (Homo sapiens) (UniProt P46098); assay: Displacement of [3H]BRL43694 from human recombinant 5-HT3 receptor expressed in CHO cells at 1 uM; type: cell-based
5-hydroxytryptamine receptor 3A (Homo sapiens), sequence (P46098 whole entry): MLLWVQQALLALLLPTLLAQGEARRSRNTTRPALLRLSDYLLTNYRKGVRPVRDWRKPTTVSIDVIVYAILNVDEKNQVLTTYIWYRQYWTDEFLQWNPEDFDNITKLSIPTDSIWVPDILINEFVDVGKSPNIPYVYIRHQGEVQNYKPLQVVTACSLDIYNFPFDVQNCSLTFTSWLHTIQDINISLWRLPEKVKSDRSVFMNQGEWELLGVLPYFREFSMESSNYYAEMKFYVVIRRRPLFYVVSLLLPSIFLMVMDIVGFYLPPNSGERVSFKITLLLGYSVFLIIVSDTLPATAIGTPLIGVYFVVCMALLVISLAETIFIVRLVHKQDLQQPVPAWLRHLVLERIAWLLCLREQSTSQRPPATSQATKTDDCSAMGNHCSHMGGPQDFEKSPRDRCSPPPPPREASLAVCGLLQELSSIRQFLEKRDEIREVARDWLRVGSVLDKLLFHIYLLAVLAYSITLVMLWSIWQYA

[10] = molecular target: 5-hydroxytryptamine receptor 5A (Homo sapiens) (UniProt P47898); assay: Displacement of [3H]LSD from human recombinant 5-HT5A receptor expressed in CHO cells at 1 uM; type: cell-based
5-hydroxytryptamine receptor 5A (Homo sapiens), sequence (P47898 whole entry): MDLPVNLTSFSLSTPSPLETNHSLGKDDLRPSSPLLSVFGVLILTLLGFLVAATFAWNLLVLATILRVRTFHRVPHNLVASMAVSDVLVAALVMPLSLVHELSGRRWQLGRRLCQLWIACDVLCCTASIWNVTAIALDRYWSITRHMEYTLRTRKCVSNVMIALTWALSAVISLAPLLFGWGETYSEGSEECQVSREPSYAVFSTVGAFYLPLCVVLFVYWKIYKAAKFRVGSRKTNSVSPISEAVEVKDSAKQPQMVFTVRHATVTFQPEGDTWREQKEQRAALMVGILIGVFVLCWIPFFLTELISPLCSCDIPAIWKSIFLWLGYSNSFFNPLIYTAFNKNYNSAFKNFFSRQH

[11] = molecular target: 5-hydroxytryptamine receptor 2B (Homo sapiens) (UniProt P41595); assay: Displacement of [125I](+/-)DOI from human recombinant 5-HT2B receptor expressed in CHO cells at 1 uM; type: cell-based
[12] = molecular target: 5-hydroxytryptamine receptor 2A (Homo sapiens) (UniProt P28223); assay: Displacement of [3H]Ketanserin from human recombinant 5-HT2A receptor expressed in HEK293 cells at 1 uM; type: cell-based
5-hydroxytryptamine receptor 2A (Homo sapiens), sequence (P28223 whole entry): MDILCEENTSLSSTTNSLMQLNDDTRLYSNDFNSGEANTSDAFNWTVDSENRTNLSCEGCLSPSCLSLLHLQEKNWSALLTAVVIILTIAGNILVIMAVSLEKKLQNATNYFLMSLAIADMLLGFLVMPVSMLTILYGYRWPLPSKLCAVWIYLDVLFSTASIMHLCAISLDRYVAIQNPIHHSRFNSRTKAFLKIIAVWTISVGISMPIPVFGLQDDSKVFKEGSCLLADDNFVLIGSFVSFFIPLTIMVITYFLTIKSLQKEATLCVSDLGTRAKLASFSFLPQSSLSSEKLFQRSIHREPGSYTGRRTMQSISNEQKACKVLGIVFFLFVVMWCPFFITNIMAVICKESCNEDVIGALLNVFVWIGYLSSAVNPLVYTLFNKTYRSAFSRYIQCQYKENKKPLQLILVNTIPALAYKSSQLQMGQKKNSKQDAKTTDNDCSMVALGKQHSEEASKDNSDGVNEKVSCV

[13] = molecular target: Nociceptin receptor (Homo sapiens) (UniProt P41146); assay: Displacement of [3H]Nociceptin from human recombinant ORL1 receptor expressed in HEK293 cells at 1 uM; type: cell-based
[14] = molecular target: Neuromedin-K receptor (Homo sapiens) (UniProt P29371); assay: Displacement of [3H]SR142801 from human recombinant NK3 receptor expressed in CHO cells at 1 uM; type: cell-based
Neuromedin-K receptor (Homo sapiens), sequence (P29371 whole entry): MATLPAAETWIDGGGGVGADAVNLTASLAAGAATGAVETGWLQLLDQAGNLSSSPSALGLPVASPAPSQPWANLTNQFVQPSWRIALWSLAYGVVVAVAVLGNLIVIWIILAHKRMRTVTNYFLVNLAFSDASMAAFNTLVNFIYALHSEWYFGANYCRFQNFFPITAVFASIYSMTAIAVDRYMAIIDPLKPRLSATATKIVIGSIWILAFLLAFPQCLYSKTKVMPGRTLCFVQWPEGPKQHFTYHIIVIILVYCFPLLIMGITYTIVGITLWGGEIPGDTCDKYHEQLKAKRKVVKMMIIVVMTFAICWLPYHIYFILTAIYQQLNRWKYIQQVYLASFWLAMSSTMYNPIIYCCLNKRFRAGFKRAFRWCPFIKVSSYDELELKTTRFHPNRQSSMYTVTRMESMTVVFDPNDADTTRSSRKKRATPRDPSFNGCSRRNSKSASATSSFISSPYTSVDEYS

[15] = molecular target: Substance-K receptor (Homo sapiens) (UniProt P21452); assay: Displacement of [125I]NKA from human recombinant NK2 receptor expressed in CHO cells at 1 uM; type: cell-based
Substance-K receptor (Homo sapiens), sequence (P21452 whole entry): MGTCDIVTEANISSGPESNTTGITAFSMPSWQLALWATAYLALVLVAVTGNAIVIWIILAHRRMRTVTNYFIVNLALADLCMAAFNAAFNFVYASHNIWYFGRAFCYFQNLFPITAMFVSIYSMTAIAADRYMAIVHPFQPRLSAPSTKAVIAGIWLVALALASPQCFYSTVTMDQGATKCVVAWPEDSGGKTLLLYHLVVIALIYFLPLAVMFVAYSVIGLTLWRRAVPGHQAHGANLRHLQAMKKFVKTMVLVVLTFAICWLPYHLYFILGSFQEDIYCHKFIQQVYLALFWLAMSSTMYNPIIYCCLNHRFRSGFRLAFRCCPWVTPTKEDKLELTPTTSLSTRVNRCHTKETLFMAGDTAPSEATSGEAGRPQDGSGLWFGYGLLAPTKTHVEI

[16] = molecular target: Muscarinic acetylcholine receptor M3 (Homo sapiens) (UniProt P20309); assay: Displacement of [3H]4-DAMP from human recombinant muscarinic M3 receptor expressed in CHO cells at 1 uM; type: cell-based
Muscarinic acetylcholine receptor M3 (Homo sapiens), sequence (P20309 whole entry, looked up): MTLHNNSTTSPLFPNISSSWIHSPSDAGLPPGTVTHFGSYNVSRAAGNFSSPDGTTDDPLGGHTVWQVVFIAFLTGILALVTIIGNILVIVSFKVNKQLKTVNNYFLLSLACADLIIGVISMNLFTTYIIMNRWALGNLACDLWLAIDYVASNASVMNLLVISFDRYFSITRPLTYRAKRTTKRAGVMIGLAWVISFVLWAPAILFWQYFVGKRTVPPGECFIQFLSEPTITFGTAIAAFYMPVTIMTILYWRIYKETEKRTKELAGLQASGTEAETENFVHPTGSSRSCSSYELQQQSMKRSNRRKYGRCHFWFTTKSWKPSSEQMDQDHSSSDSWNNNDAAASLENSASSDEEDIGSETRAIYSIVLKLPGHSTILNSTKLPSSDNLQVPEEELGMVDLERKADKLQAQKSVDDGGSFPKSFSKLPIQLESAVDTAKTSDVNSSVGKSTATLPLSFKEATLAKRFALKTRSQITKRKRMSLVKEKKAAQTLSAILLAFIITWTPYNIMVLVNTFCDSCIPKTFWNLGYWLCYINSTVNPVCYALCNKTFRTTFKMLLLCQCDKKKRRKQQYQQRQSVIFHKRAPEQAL

[17] = molecular target: Muscarinic acetylcholine receptor M1 (Homo sapiens) (UniProt P11229); assay: Displacement of [3H]pirenzepine from human recombinant muscarinic M1 receptor expressed in CHO cells at 1 uM; type: cell-based
[18] = molecular target: Histamine H1 receptor (Homo sapiens) (UniProt P35367); assay: Displacement of [3H]pyrilamine from human recombinant H1 receptor expressed in HEK293 cells at 1 uM; type: cell-based
[19] = molecular target: Histamine H2 receptor (Homo sapiens) (UniProt P25021); assay: Displacement of [125I]APT from human recombinant H2 receptor expressed in CHO cells at 1 uM; type: cell-based
Rattus norvegicus [20] = species: Rattus norvegicus; assay: Displacement of [3H]GABA from rat GABA in cerebral cortex; type: tissue-based; details: concentration not given here
[21] = molecular target: Endothelin-1 receptor (Homo sapiens) (UniProt P25101); assay: Displacement of [125I]endothelin-1 from human recombinant ETA receptor expressed in CHO cells at 1 uM; type: cell-based
Endothelin-1 receptor (Homo sapiens), sequence (P25101 whole entry): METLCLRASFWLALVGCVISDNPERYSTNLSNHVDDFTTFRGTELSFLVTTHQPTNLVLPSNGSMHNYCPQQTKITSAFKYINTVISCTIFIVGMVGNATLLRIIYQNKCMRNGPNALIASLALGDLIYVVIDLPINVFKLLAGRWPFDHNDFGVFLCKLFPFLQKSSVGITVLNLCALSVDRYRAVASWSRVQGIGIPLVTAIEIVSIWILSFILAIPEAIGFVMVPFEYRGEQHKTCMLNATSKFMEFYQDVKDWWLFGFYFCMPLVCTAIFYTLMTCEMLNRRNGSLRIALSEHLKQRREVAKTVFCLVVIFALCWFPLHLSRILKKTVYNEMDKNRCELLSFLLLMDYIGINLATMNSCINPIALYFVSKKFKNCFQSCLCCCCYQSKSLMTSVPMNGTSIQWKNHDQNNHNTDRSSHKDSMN

[22] = molecular target: D(2) dopamine receptor (Homo sapiens) (UniProt P14416); assay: Displacement of [3H]spiperone from human recombinant D2S receptor expressed in HEK293 cells at 1 uM; type: cell-based
[23] = molecular target: Cannabinoid receptor 1 (Homo sapiens) (UniProt P21554); assay: Displacement of [3H]CP55940 from human recombinant CB1 receptor expressed in CHO cells at 1 uM; type: cell-based
Rattus norvegicus [24] = species: Rattus norvegicus; assay: Displacement of [3H]flunitrazepam from rat central BZD receptor in cerebral cortex; type: tissue-based; details: concentration not given here
[25] = molecular target: Beta-1 adrenergic receptor (Homo sapiens) (UniProt P08588); assay: Displacement of [3H](-)CGP12177 from human recombinant beta1 receptor expressed in HEK293 cells at 1 uM; type: cell-based
[26] = molecular target: Adrenergic receptor alpha-2 (Rattus norvegicus) (UniProt P22086+P19328+P22909); assay: Displacement of [3H]RX821002 from rat alpha2 receptor in cerebral cortex; type: tissue-based; details: concentration not given here
[27] = molecular target: Adenosine receptor A3 (Homo sapiens) (UniProt P0DMS8); assay: Displacement of [3H]AB-MECA from human recombinant adenosine A3 receptor expressed in HEK293 cells at 1 uM; type: cell-based
[28] = molecular target: Adenosine receptor A2a (Homo sapiens) (UniProt P29274); assay: Displacement of [3H]CGS21680 from human recombinant adenosine A2A receptor expressed in HEK293 cells at 1 uM; type: cell-based
[29] = molecular target: Adenosine receptor A1 (Homo sapiens) (UniProt P30542); assay: Displacement of [3H]DPCPX from human recombinant adenosine A1 receptor expressed in CHO cells at 1 uM; type: cell-based
[30] = molecular target: T1, Fatty-acid amide hydrolase 1 (Mus musculus, UniProt O08914); assay: Inhibition of FAAH in mouse brain homogenate using [3Hethanolamine]AEA as substrate incubated for 20 mins prior to substrate addition measured after 15 mins by beta counting analysis; type: tissue-based
T1 sequence (O08914 whole entry): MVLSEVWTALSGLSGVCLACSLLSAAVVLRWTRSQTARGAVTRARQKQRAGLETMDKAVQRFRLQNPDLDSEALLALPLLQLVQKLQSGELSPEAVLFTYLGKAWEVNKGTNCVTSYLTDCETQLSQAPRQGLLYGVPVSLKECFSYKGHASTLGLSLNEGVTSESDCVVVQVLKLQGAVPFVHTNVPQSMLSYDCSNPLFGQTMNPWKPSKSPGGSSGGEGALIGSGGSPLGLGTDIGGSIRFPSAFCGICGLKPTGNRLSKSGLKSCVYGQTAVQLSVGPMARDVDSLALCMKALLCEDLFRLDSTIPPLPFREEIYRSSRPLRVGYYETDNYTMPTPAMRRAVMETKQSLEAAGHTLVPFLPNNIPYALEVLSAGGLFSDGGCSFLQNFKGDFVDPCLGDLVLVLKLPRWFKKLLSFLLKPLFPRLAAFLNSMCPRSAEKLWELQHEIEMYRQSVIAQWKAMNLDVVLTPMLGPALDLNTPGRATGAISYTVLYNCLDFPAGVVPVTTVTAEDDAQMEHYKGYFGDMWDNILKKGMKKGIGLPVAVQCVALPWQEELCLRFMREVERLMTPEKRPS

Sodium-dependent dopamine transporter (Homo sapiens), sequence (Q01959 whole entry): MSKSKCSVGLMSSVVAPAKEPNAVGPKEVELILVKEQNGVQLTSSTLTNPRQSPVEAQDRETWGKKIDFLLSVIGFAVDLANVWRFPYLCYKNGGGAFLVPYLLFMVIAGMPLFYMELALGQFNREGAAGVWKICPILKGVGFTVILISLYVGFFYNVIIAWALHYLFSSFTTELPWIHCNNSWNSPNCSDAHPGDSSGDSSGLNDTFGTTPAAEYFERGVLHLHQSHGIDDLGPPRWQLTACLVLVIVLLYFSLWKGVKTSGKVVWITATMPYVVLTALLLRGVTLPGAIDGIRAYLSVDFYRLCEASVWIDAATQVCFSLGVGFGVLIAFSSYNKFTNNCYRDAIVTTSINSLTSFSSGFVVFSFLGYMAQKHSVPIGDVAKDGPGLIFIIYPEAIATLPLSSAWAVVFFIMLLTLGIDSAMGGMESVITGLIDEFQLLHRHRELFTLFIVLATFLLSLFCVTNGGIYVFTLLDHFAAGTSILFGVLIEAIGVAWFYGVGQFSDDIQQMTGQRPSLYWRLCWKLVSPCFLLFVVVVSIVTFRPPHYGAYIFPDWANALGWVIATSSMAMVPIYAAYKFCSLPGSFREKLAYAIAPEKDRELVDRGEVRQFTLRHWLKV

Structure (SMILES): CCCCCCCOc1ccc(NC(=O)Oc2cccc(N3CCNCC3)c2)cc1
- inhibition [1]: 103%
- inhibition [2]: 52%
- inhibition (Rattus norvegicus [3]): 2%
- inhibition (Rattus norvegicus [4]): -5%
- inhibition (Rattus norvegicus [5]): 30%
- inhibition [6]: -2%
- inhibition [7]: -1%
- inhibition [8]: 48%
- inhibition [9]: 7%
- inhibition [10]: 27%
- inhibition [11]: 91%
- inhibition [12]: 96%
- inhibition [13]: 7%
- inhibition [14]: -7%
- inhibition [15]: -10%
- inhibition [16]: 35%
- inhibition [17]: 28%
- inhibition [18]: 22%
- inhibition [19]: 27%
- inhibition (Rattus norvegicus [20]): 0%
- inhibition [21]: 14%
- inhibition [22]: 9%
- inhibition [23]: 30%
- inhibition (Rattus norvegicus [24]): 16%
- inhibition [25]: 66%
- inhibition [26]: 52%
- inhibition [27]: 4%
- inhibition [28]: 3%
- inhibition [29]: 9%
- Ki [30]: > 500 nM
